Results from patent publication US9695155B2, “Herbicidal substituted pyrimidinyloxy benzene compounds” (E. I. DU PONT DE NEMOURS AND COMPANY, priority 2013, dated 2017).

Assays:
[1] = system: blackgrass; assay: Test C preemergence; assay type: in vivo, Alopecurus myosuroides; settings: for Blackgrass plant response rating: preemergence; for Plant response rating, Blackgrass: Preemergence, 31 g ai/ha, scale 0 to 100, 0 no effect, 100 complete control
In short: (§1)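 Seeds were sown in loam–sand blend and sprayed preemergence, while plants at 1- to 4-leaf stage (2–18 cm) in peat-based medium received postemergence sprays; test chemicals were formulated in a non-phytotoxic solvent with surfactant. After 13–15 days in a greenhouse, injury was rated visually against controls, 0 (no effect) to 100 (complete control).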

[2] = system: morningglory; assay: Test A postemergence; assay type: in vivo, Ipomoea spp.
In short: (§2)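 Scoring: eye-based comparison with untreated controls, 0 for no effect through 100 for complete control, at about day 10. Treatments: directed soil spray preemergence; foliar spray postemergence on 2–10 cm plants at the one- to two-leaf stage. Medium: loam soil with sand.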

[3] = system: Italian ryegrass; assay: Test C preemergence; assay type: in vivo, Lolium multiflorum; settings: for Ryegrass, Italian plant response rating: preemergence; for Plant response rating, Ryegrass, Italian: Preemergence, 31 g ai/ha, scale 0 to 100, 0 no effect, 100 complete control
In short: as §1

[4] = system: pigweed; assay: Test C postemergence; assay type: in vivo, Amaranthus retroflexus; settings: for Plant response rating, Pigweed: scale 0 to 100 (0 no effect, 100 complete control)
In short: as §1

[5] = system: wheat, winter; assay: Test C preemergence; assay type: in vivo, Triticum aestivum; settings: for Wheat plant response rating: preemergence; for Plant response rating, Wheat: Preemergence, 31 g ai/ha, scale 0 to 100, 0 no effect, 100 complete control
In short: as §1

[6] = system: velvetleaf; assay: Test C preemergence; assay type: in vivo, Abutilon theophrasti; settings: for Velvetleaf plant response rating: preemergence; for Plant response rating, Velvetleaf: Preemergence, 31 g ai/ha, scale 0 to 100, 0 no effect, 100 complete control
In short: as §1

[7] = system: velvetleaf; assay: Test A postemergence; assay type: in vivo, Abutilon theophrasti
In short: as §2

[8] = system: ragweed; assay: Test C preemergence; assay type: in vivo, Ambrosia elatior; settings: for Ragweed plant response rating: preemergence; for Plant response rating, Ragweed: Preemergence, 31 g ai/ha, scale 0 to 100, 0 no effect, 100 complete control
In short: as §1

[9] = system: morningglory; assay: Test A preemergence; assay type: in vivo, Ipomoea spp.; settings: for Morningglory plant response rating: 0 to 100 scale, 0 no effect, 100 complete control, approx. 10 days
In short: as §2

[10] = system: Heteranthera limosa; assay: Test B flooded paddy test; assay type: in vivo; settings: Flood, 250 g ai/ha; 0 to 100 scale where 0 is no effect and 100 is complete control
In short: (§3)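 Plants at 2-leaf stage; pots flooded to 3 cm above soil and compound applied directly into paddy water, depth held throughout. After 13 to 15 days in greenhouse, visual rating versus controls on 0 (no effect) to 100 (complete control) scale.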

[11] = system: johnsongrass; assay: Test C preemergence; assay type: in vivo, Sorghum halepense; settings: for Johnsongrass plant response rating: preemergence; for Plant response rating, Johnsongrass: Preemergence, 31 g ai/ha, scale 0 to 100, 0 no effect, 100 complete control
In short: as §1

[12] = system: wheat; assay: Test A postemergence; assay type: in vivo, Triticum aestivum
In short: as §2

[13] = system: waterhemp; assay: Test C postemergence; assay type: in vivo, Amaranthus rudis; settings: for Plant response rating, Waterhemp: scale 0 to 100 (0 no effect, 100 complete control)
In short: as §1

[14] = system: sedge, umbrella; assay: Test B flooded paddy test; assay type: in vivo, Cyperus difformis; settings: Flood, 250 g ai/ha; 0 to 100 scale where 0 is no effect and 100 is complete control
In short: as §3

[15] = system: wheat; assay: Test A preemergence; assay type: in vivo, Triticum aestivum
In short: as §2

[16] = system: velvetleaf; assay: Test A preemergence; assay type: in vivo, Abutilon theophrasti
In short: as §2

[17] = 16 g ai/ha, scale 0 to 100 (0 no effect, 100 complete control)
[18] = 62 g ai/ha, scale 0 (no effect) to 100 (complete control)
[19] = 125 g ai/ha, scale 0 (no effect) to 100 (complete control)
[20] = 500 g ai/ha, 0 to 100 scale where 0 is no effect and 100 is complete control
[21] = 125 g ai/ha, postemergence, visual rating
[22] = 125 g ai/ha, 0 to 100 scale where 0 is no effect and 100 is complete control
[23] = 1000 g ai/ha, 0 to 100 scale, 0 no effect, 100 complete control
[24] = 16 g ai/ha, postemergence, 0 is no effect, 100 is complete control
[25] = 1000 g ai/ha, 0 to 100 scale, 0 no effect, 100 complete control, approx. 10 days

Structure (SMILES)	Blackgrass plant response rating [1, 17]	Blackgrass plant response rating [1, 18]	Blackgrass plant response rating [1, 19]	Plant response rating, Blackgrass [1]	Ryegrass, Italian plant response rating [3, 17]	Ryegrass, Italian plant response rating [3, 18]	Ryegrass, Italian plant response rating [3, 19]	Plant response rating, Ryegrass, Italian [3]	Plant response rating, Pigweed [4, 21]	Plant response rating, Pigweed ([4]; Postemergence, 62 g ai/ha)	Wheat plant response rating [5, 17]	Wheat plant response rating [5, 18]	Wheat plant response rating [5, 19]	Plant response rating, Wheat [5]	Velvetleaf plant response rating [6, 17]	Velvetleaf plant response rating [6, 18]	Velvetleaf plant response rating [6, 19]	Plant response rating, Velvetleaf [6]	Ragweed plant response rating [8, 17]	Ragweed plant response rating [8, 18]	other results
N#Cc1cnn(-c2c(C#N)cccc2Oc2ncc(F)cn2)c1 [Compound 111]	20	40	90	10	0	40	60	0	85	85	0	0	20	30	60	90	100	60	10	100	Plant response rating, Morningglory [2, 20]: 90; Plant response rating, Velvetleaf [7, 20]: 100; Ragweed plant response rating [8, 19]: 100; Plant response rating, Ragweed [8]: 50; Plant response rating, Morningglory [9, 22]: 90; Morningglory plant response rating ([9]; 500 g ai/ha): 100; Plant response rating, Ducksalad [10]: 70; Johnsongrass plant response rating [11, 17]: 0; Johnsongrass plant response rating [11, 18]: 25; Johnsongrass plant response rating [11, 19]: 80; Plant response rating, Johnsongrass [11]: 5; Plant response rating, Wheat [12, 20]: 80; Plant response rating, Waterhemp [13, 21]: 90; Plant response rating, Waterhemp ([13]; Postemergence, 62 g ai/ha): 80; Plant response rating, Sedge, Umbrella [14]: 75; Plant response rating, Wheat [15, 22]: 0; Plant response rating, Velvetleaf [16, 22]: 70
N#Cc1cn(-c2c(Br)cccc2Oc2ncc(Cl)cn2)nn1 [Compound 116]	0	60	85	10	0	10	35	0	95	90	0	0	5	0	20	100	100	70	0	45	Plant response rating, Morningglory [2, 23]: 100; Plant response rating (0 to 100), Pigweed [4, 24]: 80; Plant response rating, Velvetleaf [7, 23]: 100; Ragweed plant response rating [8, 19]: 45; Plant response rating, Ragweed [8]: 5; Morningglory plant response rating ([9]; 1000 g ai/ha): 100; Plant response rating, Ducksalad [10]: 60; Johnsongrass plant response rating [11, 17]: 0; Johnsongrass plant response rating [11, 18]: 55; Johnsongrass plant response rating [11, 19]: 70; Plant response rating, Johnsongrass [11]: 25; Plant response rating, Wheat [12, 23]: 50; Plant response rating (0 to 100), Waterhemp [13, 24]: 65; Plant response rating, Waterhemp [13, 21]: 95; Plant response rating, Waterhemp ([13]; Postemergence, 62 g ai/ha): 80; Plant response rating, Sedge, Umbrella [14]: 30; Wheat plant response rating [15, 25]: 40; Velvetleaf plant response rating [16, 25]: 100
